The IC50 is the concentration needed to halve the response being measured.

The source of these data is patent US20250215029A1 (Recludix Pharma, Inc., priority 2022, published 2025).

In assay [1] the target is T1, Recombinant STAT6 protein (STAT6 (W123-T658)) (Homo sapiens, UniProt P42226).
T1 construct: Recombinant STAT6 protein (STAT6 (W123-T658))
T1 sequence (P42226 123-658): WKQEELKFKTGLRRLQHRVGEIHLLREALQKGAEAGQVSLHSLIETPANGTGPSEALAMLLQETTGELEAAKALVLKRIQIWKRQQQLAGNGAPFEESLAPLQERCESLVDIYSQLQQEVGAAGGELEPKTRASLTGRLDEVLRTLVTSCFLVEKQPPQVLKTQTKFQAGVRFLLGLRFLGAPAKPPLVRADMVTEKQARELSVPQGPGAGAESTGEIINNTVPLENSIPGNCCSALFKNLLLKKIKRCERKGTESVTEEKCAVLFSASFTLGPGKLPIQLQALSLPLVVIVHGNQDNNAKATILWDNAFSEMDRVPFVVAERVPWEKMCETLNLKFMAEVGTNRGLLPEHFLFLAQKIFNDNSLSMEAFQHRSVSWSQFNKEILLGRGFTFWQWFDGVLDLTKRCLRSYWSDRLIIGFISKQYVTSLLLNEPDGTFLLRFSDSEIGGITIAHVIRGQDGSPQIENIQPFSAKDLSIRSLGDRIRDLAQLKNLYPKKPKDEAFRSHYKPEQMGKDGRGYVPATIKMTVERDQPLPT
In words: STAT6 Fluorescence Polarization (FP) Assay. It is filed as binding. Conditions: STAT6 (W123-T658) 250 nM, probe 5-FAM-Ap[…]-NH2 2 nM, 45-minute incubation; read-out: STAT6 (FP assay IC50 class). The essentials:
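Probe displacement format: serially diluted compounds incubated 45 min at room temperature with 2 nM fluorescent phosphopeptide and 250 nM STAT6 (W123-T658) in pH 7.4 HEPES buffer, 1% DMSO final. Polarization signal plotted against log concentration, IC50 fitted by nonlinear regression.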
(Polarisation of emitted light reports the rotation of a fluorescent probe.)

The target of assay [2] is T2, Recombinant STAT3 protein (STAT3 (G127-I722)) (Homo sapiens, UniProt P40763).
T2 construct: Recombinant STAT3 protein (STAT3 (G127-I722))
T2 sequence (P40763 127-722): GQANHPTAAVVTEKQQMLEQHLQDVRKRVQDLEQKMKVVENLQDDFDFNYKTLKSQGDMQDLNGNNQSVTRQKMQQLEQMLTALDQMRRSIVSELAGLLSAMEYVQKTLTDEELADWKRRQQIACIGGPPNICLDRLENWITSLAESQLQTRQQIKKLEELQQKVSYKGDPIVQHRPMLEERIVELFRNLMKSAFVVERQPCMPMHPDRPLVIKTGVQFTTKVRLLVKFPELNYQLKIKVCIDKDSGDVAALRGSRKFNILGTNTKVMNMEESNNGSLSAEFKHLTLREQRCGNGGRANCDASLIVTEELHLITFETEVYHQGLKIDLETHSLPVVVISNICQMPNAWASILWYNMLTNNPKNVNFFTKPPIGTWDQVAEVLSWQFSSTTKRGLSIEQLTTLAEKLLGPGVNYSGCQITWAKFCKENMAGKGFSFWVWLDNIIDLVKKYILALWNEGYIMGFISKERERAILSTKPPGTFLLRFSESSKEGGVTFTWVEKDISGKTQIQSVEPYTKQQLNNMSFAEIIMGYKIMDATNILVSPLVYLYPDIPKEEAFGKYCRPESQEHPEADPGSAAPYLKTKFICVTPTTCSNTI
In words: STAT3 Fluorescence Polarization (FP) Assay. It is filed as binding. Conditions: STAT3 (G127-I722) 25 nM, probe 5-FAM-GpYLPQTV-NH2 2 nM, 45-minute incubation; read-out: STAT3 (FP assay IC50 class). An outline of the steps: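 In this competition FP format, STAT3 residues G127-I722 (25 nM) and 2 nM 5-FAM-GpYLPQTV-NH2 met test compounds for 45 min at room temperature. IC50 values result from fitting mP signal against log concentration by nonlinear regression.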

As for `O=C(N[C@H]1CCCC[C@H]2CC[C@@H](C(=O)N3CC4(CC(=O)c5nccn54)C3)N2C1=O)c1cc2cc(C(F)(F)P(=O)(O)O)ccc2s1` [Compound 774, (difluoro(2-(((3S,6S,10aS)-5-oxo-3-(7′-oxo-6′,7′-dihydrospiro[azetidine-3,5′-pyrrolo[1,2-a]imidazole]-1-carbonyl)decahydropyrrolo[1,2-a]azocin-6-yl)carbamoyl)benzo [b]thiophen-5-yl)methyl) phosphonic acid], the IC50 in assay [1] was 3 to 30 µM; in assay [2], under 100 nM.

As to `Cc1ncccc1C1CN(C(=O)[C@@H]2CC[C@@H]3CCC[C@H](NC(=O)c4cc5cc(C(F)(F)P(=O)(O)O)ccc5s4)C(=O)N32)C1` [Compound 775, (difluoro(2-(((3S,6S,9aS)-3-(3-(2-methylpyridin-3-yl)azetidine-1-carbonyl)-5-oxooctahydro-1H-pyrrolo[1,2-a]azepin-6-yl)carbamoyl)benzo [b]thiophen-5-yl)methyl) phosphonic acid], the IC50 is 0.3 to 3 µM in assay [1] and under 100 nM in assay [2].

As for `N#CC1(c2ccccn2)CN(C(=O)[C@@H]2CC[C@@H]3CCC[C@H](NC(=O)c4cc5cc(C(F)(F)P(=O)(O)O)ccc5s4)C(=O)N32)C1` [Compound 776, ((2-(((3S,6S,9aS)-3-(3-cyano-3-(pyridin-2-yl)azetidine-1-carbonyl)-5-oxooctahydro-1H-pyrrolo[1,2-a]azepin-6-yl)carbamoyl)benzo [b]thiophen-5-yl)difluoromethyl) phosphonic acid], the IC50 is 0.3 to 3 µM in assay [1] and under 100 nM in assay [2].

Take `COCC1(c2ccccc2)CN(C(=O)[C@@H]2CC[C@@H]3CCC[C@H](NC(=O)c4cc5cc(C(F)(F)P(=O)(O)O)ccc5s4)C(=O)N32)C1` [Compound 777, (difluoro(2-(((3S,6S,9aS)-3-(3-(methoxymethyl)-3-phenylazetidine-1-carbonyl)-5-oxooctahydro-1H-pyrrolo[1,2-a]azepin-6-yl)carbamoyl)benzo [b]thiophen-5-yl)methyl) phosphonic acid]: the IC50 in assay [1] was 0.3 to 3 µM; in assay [2], under 100 nM.

Turning to `Cc1ccccc1C1CN(C(=O)[C@@H]2CC[C@@H]3CCC[C@H](NC(=O)c4cc5cc(C(F)(F)P(=O)(O)O)ccc5s4)C(=O)N32)C1` [Compound 778, (difluoro(2-(((3S,6S,9aS)-5-oxo-3-(3-(o-tolyl)azetidine-1-carbonyl)octahydro-1H-pyrrolo[1,2-a]azepin-6-yl)carbamoyl)benzo [b]thiophen-5-yl)methyl) phosphonic acid], the results for the IC50 in assay [1] and in assay [2] were 0.3 to 3 µM and under 100 nM, respectively.

Turning to `Cn1cnnc1C1CN(C(=O)[C@@H]2CC[C@@H]3CCC[C@H](NC(=O)c4cc5cc(C(F)(F)P(=O)(O)O)ccc5s4)C(=O)N32)C1` [Compound 779, (difluoro(2-(((3S,6S,9aS)-3-(3-(4-methyl-4H-1,2,4-triazol-3-yl)azetidine-1-carbonyl)-5-oxooctahydro-1H-pyrrolo[1,2-a]azepin-6-yl)carbamoyl)benzo [b]thiophen-5-yl)methyl) phosphonic acid], the IC50 was 3 to 30 µM in assay [1] and under 100 nM in assay [2].

`N#CC1CN(C(=O)[C@@H]2CC[C@@H]3CCC[C@H](NC(=O)c4cc5cc(C(F)(F)P(=O)(O)O)ccc5s4)C(=O)N32)C1` [Compound 780, ((2-(((3S,6S,9aS)-3-(3-cyanoazetidine-1-carbonyl)-5-oxooctahydro-1H-pyrrolo[1,2-a]azepin-6-yl)carbamoyl)benzo [b]thiophen-5-yl)difluoromethyl) phosphonic acid]: the figures for the IC50 in assay [1] and in assay [2] were 0.3 to 3 µM and 100 to 1000 nM, respectively.

As for `Cc1ccncc1C1CN(C(=O)[C@@H]2CC[C@@H]3CCC[C@H](NC(=O)c4cc5cc(C(F)(F)P(=O)(O)O)ccc5s4)C(=O)N32)C1` [Compound 783, (difluoro(2-(((3S,6S,9aS)-3-(3-(4-methylpyridin-3-yl)azetidine-1-carbonyl)-5-oxooctahydro-1H-pyrrolo[1,2-a]azepin-6-yl)carbamoyl)benzo [b]thiophen-5-yl)methyl) phosphonic acid], the IC50 in assay [1] is over 30 µM; in assay [2] it was over 10000 nM.

For `CC(C)C1(c2ccccc2)CN(C(=O)[C@@H]2CC[C@@H]3CCC[C@H](NC(=O)c4cc5cc(C(F)(F)P(=O)(O)O)ccc5s4)C(=O)N32)C1` [Compound 784, (difluoro(2-(((3S,6S,9aS)-3-(3-isopropyl-3-phenylazetidine-1-carbonyl)-5-oxooctahydro-1H-pyrrolo[1,2-a]azepin-6-yl)carbamoyl)benzo [b]thiophen-5-yl)methyl) phosphonic acid], the concentration for half-maximal inhibition (IC50) in assay [1] lay in the range of 3 to 30 µM; in assay [2], 100 to 1000 nM.

`O=C(N[C@H]1CCC[C@H]2CC[C@@H](C(=O)N3CC(C4COC4)C3)N2C1=O)c1cc2cc(C(F)(F)P(=O)(O)O)ccc2s1` [Compound 785, (difluoro(2-(((3S,6S,9aS)-3-(3-(oxetan-3-yl)azetidine-1-carbonyl)-5-oxooctahydro-1H-pyrrolo[1,2-a]azepin-6-yl)carbamoyl)benzo [b]thiophen-5-yl)methyl) phosphonic acid]: the concentration for half-maximal inhibition (IC50) lay within 3 to 30 µM in assay [1] and 100 to 1000 nM in assay [2].

Take `O=C(N[C@H]1CCCC[C@H]2CC[C@@H](C(=O)N3CCCC34CC4)N2C1=O)c1cc2cc(C(F)(F)P(=O)(O)O)ccc2s1` [Compound 786, (difluoro(2-(((3S,6S,10aS)-5-oxo-3-(4-azaspiro[2.4]heptane-4-carbonyl)decahydropyrrolo[1,2-a]azocin-6-yl)carbamoyl)benzo [b]thiophen-5-yl)methyl) phosphonic acid]: the half-maximal inhibitory concentration (IC50) in assay [1] was in the range of 0.3 to 3 µM; in assay [2] it was 1000 to 10000 nM.

In the case of `CS(=O)(=O)NC1CN(C(=O)[C@@H]2CC[C@@H]3CCCC[C@H](NC(=O)c4cc5cc(C(F)(F)P(=O)(O)O)ccc5s4)C(=O)N32)C1` [Compound 787, (difluoro(2-(((3S,6S,10aS)-3-(3-(methylsulfonamido)azetidine-1-carbonyl)-5-oxodecahydropyrrolo [1,2-a]azocin-6-yl)carbamoyl)benzo [b]thiophen-5-yl)methyl) phosphonic acid], the figures for the IC50 in assay [1] and in assay [2] were 0.3 to 3 µM and under 100 nM, respectively.

Turning to `CN(CCc1cc[nH]c(=O)c1)C(=O)[C@@H]1CC[C@@H]2CCCC[C@H](NC(=O)c3cc4cc(C(F)(F)P(=O)(O)O)ccc4s3)C(=O)N21` [Compound 788, (difluoro(2-(((3S,6S,10aS)-3-(methyl(2-(2-oxo-1,2-dihydropyridin-4-yl)ethyl)carbamoyl)-5-oxodecahydropyrrolo [1,2-a]azocin-6-yl)carbamoyl)benzo [b]thiophen-5-yl)methyl) phosphonic acid], the figures for the IC50 in assay [1] and in assay [2] were 0.3 to 3 µM and 1000 to 10000 nM, respectively.

On to `O=C(N[C@H]1CCCC[C@H]2CC[C@@H](C(=O)N3Cc4ccncc4C3)N2C1=O)c1cc2cc(C(F)(F)P(=O)(O)O)ccc2s1` [Compound 789, ((2-(((3S,6S,10aS)-3-(2,3-dihydro-1H-pyrrolo[3,4-c]pyridine-2-carbonyl)-5-oxodecahydropyrrolo [1,2-a]azocin-6-yl)carbamoyl)benzo [b]thiophen-5-yl)difluoromethyl) phosphonic acid], for which the IC50 in assay [1] lay within 0.3 to 3 µM; in assay [2], 100 to 1000 nM.

Regarding `CS(=O)(=O)CC1CN(C(=O)[C@@H]2CC[C@@H]3CCC[C@H](NC(=O)c4cc5cc(C(F)(F)P(=O)(O)O)ccc5s4)C(=O)N32)C1` [Compound 790, (difluoro(2-(((3S,6S,9aS)-3-(3-((methylsulfonyl)methyl)azetidine-1-carbonyl)-5-oxooctahydro-1H-pyrrolo[1,2-a]azepin-6-yl)carbamoyl)benzo [b]thiophen-5-yl)methyl) phosphonic acid], the figures for the IC50 in assay [1] and in assay [2] were 3 to 30 µM and under 100 nM, respectively.

For the compound `CC(c1cc[nH]c(=O)c1)N(C)C(=O)[C@@H]1CC[C@@H]2CCCC[C@H](NC(=O)c3cc4cc(C(F)(F)P(=O)(O)O)ccc4s3)C(=O)N21` (stereo partly drawn) [Compound 791, (difluoro(2-(((3S,6S,10aS)-3-(methyl(1-(2-oxo-1,2-dihydropyridin-4-yl)ethyl)carbamoyl)-5-oxodecahydropyrrolo [1,2-a]azocin-6-yl)carbamoyl)benzo [b]thiophen-5-yl)methyl) phosphonic acid], the IC50 in assay [1] was 0.3 to 3 µM; in assay [2], 100 to 1000 nM.

Turning to `CC(NC(=O)[C@@H]1CC[C@@H]2CCCC[C@H](NC(=O)c3cc4cc(C(F)(F)P(=O)(O)O)ccc4s3)C(=O)N21)c1cc[nH]c(=O)c1` (stereo partly drawn) [Compound 792, (difluoro(2-(((3S,6S,10aS)-5-oxo-3-((1-(2-oxo-1,2-dihydropyridin-4-yl)ethyl)carbamoyl)decahydropyrrolo[1,2-a]azocin-6-yl)carbamoyl)benzo [b]thiophen-5-yl)methyl) phosphonic acid], the IC50 lay in the range of 0.3 to 3 µM in assay [1] and 100 to 1000 nM in assay [2].
